The record followed here is patent US20240360116A1, “BICYCLIC DERIVATIVES” (ELANCO TIERGESUNDHEIT AG, priority 2020, published 2024).

As a reminder, the pEC50 is the EC50 on a negative log10 scale, so that one unit is a factor of ten. For orientation: EC50 means the concentration needed to bring the measured effect to its halfway point.

For one test, the target named is D. immitis Slo-1 (Dirofilaria immitis, UniProt I0DFK5). The test can be described thus: In Vitro Assay 2: D. immitis Slo-1 recombinant CHO cell line, membrane potential. Particulars: EC50, CHO cells expressing D. immitis Slo-1, voltage sensitive dye, FLIPR Tetra, 70 mM KCl. Type of test: cell-based.
Chain of D. immitis Slo-1 (I0DFK5 1-1119): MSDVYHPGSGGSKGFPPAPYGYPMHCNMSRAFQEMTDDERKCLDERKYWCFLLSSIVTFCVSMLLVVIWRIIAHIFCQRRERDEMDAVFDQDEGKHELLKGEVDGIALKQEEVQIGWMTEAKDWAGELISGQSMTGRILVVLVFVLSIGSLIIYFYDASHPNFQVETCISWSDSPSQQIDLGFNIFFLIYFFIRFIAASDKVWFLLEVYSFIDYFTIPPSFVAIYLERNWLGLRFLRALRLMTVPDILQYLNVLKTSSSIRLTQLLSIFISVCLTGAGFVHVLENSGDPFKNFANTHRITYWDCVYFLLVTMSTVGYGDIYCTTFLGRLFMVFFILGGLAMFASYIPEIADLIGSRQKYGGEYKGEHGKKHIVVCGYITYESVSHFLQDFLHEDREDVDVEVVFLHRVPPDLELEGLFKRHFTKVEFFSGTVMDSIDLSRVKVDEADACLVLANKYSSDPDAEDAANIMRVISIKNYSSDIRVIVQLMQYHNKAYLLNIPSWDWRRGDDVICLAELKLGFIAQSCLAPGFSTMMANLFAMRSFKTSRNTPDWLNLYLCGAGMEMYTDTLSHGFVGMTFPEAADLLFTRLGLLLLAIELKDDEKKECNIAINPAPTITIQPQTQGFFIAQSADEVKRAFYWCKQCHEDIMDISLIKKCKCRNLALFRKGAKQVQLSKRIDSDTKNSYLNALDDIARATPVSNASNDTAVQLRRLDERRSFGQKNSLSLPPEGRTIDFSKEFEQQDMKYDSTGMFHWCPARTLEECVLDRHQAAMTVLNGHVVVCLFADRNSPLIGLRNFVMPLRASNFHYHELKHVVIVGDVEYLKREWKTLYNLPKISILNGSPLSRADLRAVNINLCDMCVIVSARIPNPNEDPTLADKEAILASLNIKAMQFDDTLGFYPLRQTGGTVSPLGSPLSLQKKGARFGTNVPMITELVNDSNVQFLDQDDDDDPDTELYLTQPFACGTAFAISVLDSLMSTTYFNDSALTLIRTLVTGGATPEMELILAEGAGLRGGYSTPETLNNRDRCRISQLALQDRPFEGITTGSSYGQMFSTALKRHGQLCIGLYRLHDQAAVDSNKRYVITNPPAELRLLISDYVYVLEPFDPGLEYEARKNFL
Test [1] deals with Adult Nippostrongylus brasiliensis. The test can be described thus: In Vitro Assay 5: Nippostrongylus brasiliensis (NIPOBR), acetylcholine esterase readout. The following applies: adult worms, tested at 10, 1 and 0.1 ppm, vs negative control. Here is the method:
Adult Nippostrongylus brasiliensis were washed with saline buffer containing 100 U/ml penicillin, 0.1 mg/ml streptomycin and 2.5 μg/ml amphotericin B. Test compounds were dissolved in DMSO and worms were incubated in medium in a final concentration of 10 μg/ml (10 ppm), 1 μg/ml (1 ppm) and 0.1 μg/ml (0.1 ppm) respectively. An aliquot of the medium was used to determine the acetylcholine esterase activity in comparison to a negative control. The principle of measuring acetylcholine esterase as readout for anthelmintic activity was described in Rapson et al (1986) and Rapson et al (1987).
Based on the evaluation of a wide concentration range, concentration-response curves as well as EC50-values were calculated.

For test [2], the system named is Dirofilaria immitis third-stage larvae. Description: In Vitro Assay 4: Dirofilaria immitis (DIROIM L4). Particulars: 72 h, read-out: EC50 (reduction of motility).
Test [3] deals with Dirofilaria immitis microfilariae. The test can be described thus: In Vitro Assay 3: Dirofilaria immitis microfilariae (DIROIM L1). The following applies: 72 h, read-out: EC50 (reduction of motility).

Each structure is given as a SMILES string. pEC50: −log10 of the molar value. Values joined by “and” are separate entries in the source; they are usually repeats but may differ in a detail not shown here. Identical values can stand only once.

`O=C(NN1CCOc2ccccc21)c1cnc2c(-c3cc(F)cc(F)c3F)c(F)ccc2c1C1CC(F)(F)C1` [Example 5.95, 4-(3,3-difluorocyclobutyl)-N-(2,3-dihydro-4H-benzo[b][1,4]oxazin-4-yl)-7-fluoro-8-(2,3,5-trifluorophenyl)quinoline-3-carboxamide]: at D. immitis Slo-1, the pEC50 was more than 7.00.
As to `O=C(NN1CCOc2ccc(F)cc21)c1cnc2c(-c3cc(F)cc(F)c3F)c(F)ccc2c1C1CS(=O)(=O)C1` [Example 5.106, 4-(1,1-dioxidothietan-3-yl)-7-fluoro-N-(6-fluoro-2,3-dihydro-4H-benzo[b][1,4]oxazin-4-yl)-8-(2,3,5-trifluorophenyl)quinoline-3-carboxamide], the pEC50 at D. immitis Slo-1 was 6.00 to 7.00. Moreover, in test [1], the EC50 was less than 0.1 µg/mL.
For `C=C(C)c1c(C(=O)NN2CCOc3ccc(F)cc32)cnc2c(-c3cc(F)cc(F)c3F)c(F)ccc12` [Example 5.99, 7-fluoro-N-(6-fluoro-2,3-dihydro-4H-benzo[b][1,4]oxazin-4-yl)-4-(prop-1-en-2-yl)-8-(2,3,5-trifluorophenyl)quinoline-3-carboxamide], on D. immitis Slo-1, the negative logarithm of the EC50 (pEC50) is 6.00 to 7.00.
`CN(c1c(C(=O)NN2CCOc3ccccc32)cnc2c(-c3cc(F)cc(F)c3F)c(F)ccc12)C1CC(F)C1` (stereo not drawn) [Example 5.87, N-(2,3-dihydro-1,4-benzoxazin-4-yl)-7-fluoro-4-[(3-fluorocyclobutyl)-methyl-amino]-8-(2,3,5-trifluorophenyl)quinoline-3-carboxamide] registered an EC50 in test [1] of less than 0.1 µg/mL.
For `O=C(NN1CCOc2ccccc21)c1cnc2c(-c3cc(F)cc(F)c3F)c(F)ccc2c1N1CC(F)C1` [Example 5.78, N-(2,3-dihydro-1,4-benzoxazin-4-yl)-7-fluoro-4-(3-fluoroazetidin-1-yl)-8-(2,3,5-trifluorophenyl)quinoline-3-carboxamide], on D. immitis Slo-1, the pEC50 is more than 7.00.
`N#Cc1c(F)cc(C(F)(F)F)cc1-c1cccc2c(N3CCOCC3)c(C(=O)NN3CCOc4ccccc43)cnc12` [Example 5.81, 8-[2-cyano-3-fluoro-5-(trifluoromethyl)phenyl]-N-(2,3-dihydro-1,4-benzoxazin-4-yl)-4-morpholino-quinoline-3-carboxamide]: the pEC50 on D. immitis Slo-1 was 6.00 to 7.00.
On the same count and under the same terms, the figure for `Nc1c(Cl)cc(C(F)(F)F)cc1-c1cccc2c(N3CCOCC3)c(C(=O)NN3CCOc4ccccc43)cnc12` [Example 5.77, 8-[2-amino-3-chloro-5-(trifluoromethyl)phenyl]-N-(2,3-dihydro-1,4-benzoxazin-4-yl)-4-morpholino-quinoline-3-carboxamide] is > 7.00 and 6.00 to 7.00; for `O=C(NN1CCOc2ccccc21)c1cnc2c(-c3cc(F)cc(S(F)(F)(F)(F)F)c3)c(F)ccc2c1C1CCOC1` (stereo not drawn) [Example 5.102, N-(2,3-dihydro-4H-benzo[b][1,4]oxazin-4-yl)-7-fluoro-8-(3-fluoro-5-(pentafluoro-sulfanyl)phenyl)-4-(tetrahydrofuran-3-yl)quinoline-3-carboxamide] it is more than 7.00; for `O=C(NN1CCOc2ccccc21)c1cnc2c(-c3cc(C(F)(F)F)cc(F)c3F)c(F)ccc2c1N1CCOCC1` [Example 5.94, 8-(2,3-difluoro-5-(trifluoromethyl)phenyl)-N-(2,3-dihydro-4H-benzo[b][1,4]oxazin-4-yl)-7-fluoro-4-morpholinoquinoline-3-carboxamide] it is more than 7.00.
Take `O=C(NN1CCOc2ccc(F)cc21)c1cnc2c(-c3cc(F)cc(F)c3F)c(F)ccc2c1N1CC(F)C1` [Example 5.98, 7-fluoro-N-(6-fluoro-2,3-dihydro-4H-benzo[b][1,4]oxazin-4-yl)-4-(3-fluoroazetidin-1-yl)-8-(2,3,5-trifluorophenyl)quinoline-3-carboxamide]: the pEC50 on D. immitis Slo-1 was 6.00 to 7.00.
On to `O=C(NN1CCOc2ccccc21)c1cnc2c(-c3cc(Cl)cc(F)c3F)c(F)ccc2c1N1CC(F)C1` [Example 5.79, 8-(5-chloro-2,3-difluoro-phenyl)-N-(2,3-dihydro-1,4-benzoxazin-4-yl)-7-fluoro-4-(3-fluoroazetidin-1-yl)quinoline-3-carboxamide], for which the pEC50 on D. immitis Slo-1 is 6.00 to 7.00. Besides, the concentration for a half-maximal effect (EC50) in test [1] is less than 0.1 µg/mL.
Regarding `N#Cc1c(Cl)cc(C(F)(F)F)cc1-c1cccc2c(N3CCOCC3)c(C(=O)NN3CCOc4ccccc43)cnc12` [Example 5.76, 8-[3-chloro-2-cyano-5-(trifluoromethyl)phenyl]-N-(2,3-dihydro-1,4-benzoxazin-4-yl)-4-morpholino-quinoline-3-carboxamide], at D. immitis Slo-1, the negative logarithm of the EC50 (pEC50) is 6.00 to 7.00.
With `O=C(NN1CCOc2ccccc21)c1cnc2c(-c3cc(C(F)(F)F)cc(F)c3F)c(F)ccc2c1N1CC(F)C1` [Example 5.96, 8-(2,3-difluoro-5-(trifluoromethyl)phenyl)-N-(2,3-dihydro-4H-benzo[b][1,4]oxazin-4-yl)-7-fluoro-4-(3-fluoroazetidin-1-yl)quinoline-3-carboxamide], the pEC50 at D. immitis Slo-1 was 6.00 to 7.00.
In the case of `O=C(NN1CCOc2ccccc21)c1cnc2c(-c3cc(F)cc(F)c3F)c(F)ccc2c1N1C[C@@H](F)[C@H](F)C1` [Example 5.92, 4-[(3R,4R)-3,4-difluoropyrrolidin-1-yl]-N-(2,3-dihydro-1,4-benzoxazin-4-yl)-7-fluoro-8-(2,3,5-trifluorophenyl)quinoline-3-carboxamide], the EC50 in test [1] and in test [2] was less than 0.1 µg/mL throughout.
On to `O=C(NN1CCOc2ccccc21)c1cnc2c(-c3cc(C(F)(F)F)cc(F)c3Br)cccc2c1N1CCOCC1` [Example 5.80, 8-[2-bromo-3-fluoro-5-(trifluoromethyl)phenyl]-N-(2,3-dihydro-1,4-benzoxazin-4-yl)-4-morpholino-quinoline-3-carboxamide], for which the pEC50 at D. immitis Slo-1 is more than 7.00. For the same compound, the concentration for a half-maximal effect (EC50) in test [1] was less than 0.1 µg/mL.
Take `O=C(NN1CCOc2ccccc21)c1cnc2c(-c3cc(F)cc(F)c3F)c(F)ccc2c1N1C[C@@H](F)[C@@H](F)C1` (single isomer, unassigned) [Example 5.89, 4-(3,4-difluoropyrrolidin-1-yl)-N-(2,3-dihydro-1,4-benzoxazin-4-yl)-7-fluoro-8-(2,3,5-trifluorophenyl)quinoline-3-carboxamide]: the negative-log EC50 (pEC50) on D. immitis Slo-1 is more than 7.00. Also, the EC50 in test [1] and in test [2] was less than 0.1 µg/mL in each case.
`O=C(NN1CCOc2ccccc21)c1cnc2c(-c3cc(F)cc(F)c3F)c(F)c(F)cc2c1N1CCOCC1` [Example 5.105, N-(2,3-dihydro-4H-benzo[b][1,4]oxazin-4-yl)-6,7-difluoro-4-morpholino-8-(2,3,5-trifluorophenyl)quinoline-3-carboxamide]: the pEC50 at D. immitis Slo-1 is more than 7.00.
Turning to `O=C(NN1CCOc2ccccc21)c1cnc2c(-c3cc(C(F)(F)F)cc(F)c3F)c(F)ccc2c1C1CS(=O)(=O)C1` [Example 5.107, 8-(2,3-difluoro-5-(trifluoromethyl)phenyl)-N-(2,3-dihydro-4H-benzo[b][1,4]oxazin-4-yl)-4-(1,1-dioxidothietan-3-yl)-7-fluoroquinoline-3-carboxamide], at D. immitis Slo-1, the negative-log EC50 (pEC50) is 6.00 to 7.00. The same compound displayed a 50% effective concentration (EC50) in test [1] of less than 0.1 µg/mL.
In the case of `O=C(NN1CCOc2ccc(F)cc21)c1cnc2c(-c3cc(F)cc(F)c3F)c(F)ccc2c1C1CCOC1` (stereo not drawn) [Example 5.97, 7-fluoro-N-(6-fluoro-2,3-dihydro-4H-benzo[b][1,4]oxazin-4-yl)-4-(tetrahydrofuran-3-yl)-8-(2,3,5-trifluorophenyl)quinoline-3-carboxamide], the negative-log EC50 (pEC50) on D. immitis Slo-1 is more than 7.00.
As for `O=C(NN1CCOc2ccccc21)c1cnc2c(-c3cc(F)cc(F)c3F)c(F)ccc2c1C1CS(=O)(=O)C1` [Example 5.86, N-(2,3-dihydro-1,4-benzoxazin-4-yl)-4-(1,1-dioxothietan-3-yl)-7-fluoro-8-(2,3,5-trifluorophenyl)quinoline-3-carboxamide], the pEC50 on D. immitis Slo-1 is 6.00 to 7.00.
As to `O=C(NN1CCOc2ccc(F)cc21)c1cnc2c(-c3cc(F)cc(F)c3F)c(F)ccc2c1N1CCOCC1` [Example 5.83, 7-fluoro-N-(6-fluoro-2,3-dihydro-1,4-benzoxazin-4-yl)-4-morpholino-8-(2,3,5-trifluorophenyl)quinoline-3-carboxamide], the pEC50 on D. immitis Slo-1 was more than 7.00. Moreover, the EC50 in test [3], in test [1] and in test [2] was less than 0.1 µg/mL each time.
In the case of `COC1CN(c2c(C(=O)NN3CCOc4ccccc43)cnc3c(-c4cc(F)cc(F)c4F)c(F)ccc23)C1` [Example 5.84, N-(2,3-dihydro-1,4-benzoxazin-4-yl)-7-fluoro-4-(3-methoxyazetidin-1-yl)-8-(2,3,5-trifluorophenyl)quinoline-3-carboxamide], on D. immitis Slo-1, the negative-log EC50 (pEC50) was 6.00 to 7.00.
Take `O=C(NN1CCOc2ccccc21)c1cnc2c(-c3cc(F)cc(F)c3F)c(F)ccc2c1C1CC(F)C1` (stereo not drawn) [Example 5.101, N-(2,3-dihydro-4H-benzo[b][1,4]oxazin-4-yl)-7-fluoro-4-(3-fluorocyclobutyl)-8-(2,3,5-trifluorophenyl)quinoline-3-carboxamide]: the negative-log EC50 (pEC50) at D. immitis Slo-1 was more than 7.00.
`O=C(NN1C(=O)COc2ccccc21)c1cnc2c(-c3cc(F)cc(F)c3F)cccc2c1N1CCOCC1` [Example 5.109, 4-morpholino-N-(3-oxo-2,3-dihydro-4H-benzo[b][1,4]oxazin-4-yl)-8-(2,3,5-trifluorophenyl)quinoline-3-carboxamide]: the negative logarithm of the EC50 (pEC50) at D. immitis Slo-1 is 6.00 to 7.00.
Turning to `O=C(NN1CCOc2ccccc21)c1cnc2c(-c3cc(F)cc(F)c3F)c(F)ccc2c1C1CSC1` [Example 5.85, N-(2,3-dihydro-1,4-benzoxazin-4-yl)-7-fluoro-4-(thietan-3-yl)-8-(2,3,5-trifluorophenyl)quinoline-3-carboxamide], at D. immitis Slo-1, the negative-log EC50 (pEC50) was more than 7.00. For the same compound, the EC50 in test [1] was less than 0.1 µg/mL.
